The experiment relates to T1, L-asparaginase.
T1 construct: gene EC 3.5.1.1
The settings on record: 0.05 M Tris-HCl pH 8.6, 37 °C, 30 min (standard assay).

In the case of `NC(=O)C[C@H](N)C(=O)O` [L-asparagine], the Michaelis-Menten constant (Km) stood at 10.1 mM.

The Km is the substrate concentration at which the rate is half of its maximum.

These data come from publication PMC5015098, “Purification, characterization, cytotoxicity and anticancer activities of L-asparaginase, anti-colon cancer protein, from the newly isolated alkaliphilic Streptomyces fradiae NEAE-82” (Scientific Reports, 2016).
